Measurements from patent US20040019430A1, “Methods and systems for analyzing complex biological systems” (priority 2001, published 2004).
“Also recorded” adds a separate entry of the source.

Experiments:
[1] = system: Arabidopsis thaliana plants; experiment: SOA1 phenotypic analysis of herbicide-treated Arabidopsis plants (MIC, Tmic, leaf traits); assay type: in vivo; conditions: for Dev. leafCurling / Dev. leafTwisting / Dev. matureLeafAnthocyanins / Dev. matureLeafChlorosis / Dev. matureLeafNecrosis / Dev. newLeafAnthocyanins / Dev. newLeafChlorosis / Dev. newLeafNecrosis / Dev. pointedLeaves: numeric value standardized to mock treated; for Dev. leafWidth: numeric value standardized to the average response for the mock treated tissues; for Symptom Class: three-week-old Arabidopsis plants treated with herbicide, phenotype classes of FIG. 12; for Characteristic symptoms (phenotype): herbicide treated Arabidopsis
Arabidopsis thaliana [2] = experiment: MOA1 phenotypic profiling of Arabidopsis sprayed with unknown and commercial herbicides; assay type: in vivo
Arabidopsis thaliana [3] = experiment: MOA1 biochemical (metabolite) profiling by LC-MS and GC-MS; conditions: for Stress-related (commonly regulated) metabolites: MOA1, 20 min and 1 hr after spraying
[4] = system: N-starved Arabidopsis plants; conditions: nitrate addition to N-starved Arabidopsis; cited from earlier work

Compound | Dev. tMic [1] | Dev. leafCurling [1] | Dev. leafTwisting [1] | Dev. matureLeafAnthocyanins [1] | Dev. matureLeafChlorosis [1] | Dev. matureLeafNecrosis [1] | Dev. newLeafAnthocyanins [1] | Dev. newLeafChlorosis [1] | Dev. newLeafNecrosis [1] | Dev. pointedLeaves [1] | Dev. leafWidth [1] | Characteristic symptoms (phenotype) [1] | further results
O=C(O)COc1ccc(Cl)cc1Cl [2,4-D] | 2 | 1 | 2 | 1 | 2 | 0 | 0 | 1 | 0 | 0 | −1 |  | Symptom Class [1]: 5
O=C(O)c1cc(Oc2ccc(C(F)(F)F)cc2Cl)ccc1[N+](=O)[O-] [Acifluorfen] | 1 | 1 | 0 | 0 | 0 | 1 | 0 | 0 | 3 | 0 | 0 | Necrotic leaf flecks | 
Nc1nc[nH]n1 [Amitrole] | 2 | −1 | 0 | 0 | 3 | 0 | 0 | 4 | 0 | 0 | 2 | leaf bleaching and leaf enlargement | Hierarchical cluster analysis of the eleven phenotypic characteristics / phenotype (Arabidopsis thaliana [2]; Ward's method): exhibited chlorosis and not true bleaching
CCNc1nc(Cl)nc(NC(C)C)n1 [Atrazine] | 1 | 1 | 0 | 0 | 1 | 4 | 0 | 1 | 4 | 1 | −1 | rapid and widespread leaf necrosis | 
O=C(O)Cn1c(=O)sc2cccc(Cl)c21 [Benazolin] | 2 | 2 | 2 | 0 | 0 | 0 | 0 | 0 | 0 | 0 | −2 |  | 
CC(C)N1C(=O)c2ccccc2NS1(=O)=O [Bentazon] | 1 | 2 | 0 | 0 | 2 | 4 | 0 | 2 | 4 | 1 | −2 | rapid and widespread leaf necrosis | 
COC(=O)c1cc(Oc2ccc(Cl)cc2Cl)ccc1[N+](=O)[O-] [Bifenox] | 1 | 1 | 0 | 0 | 0 | 1 | 0 | 0 | 3 | 0 | 0 | Necrotic leaf flecks | 
CCSC(=O)N(CC(C)C)CC(C)C [Butylate] |  |  |  |  |  |  |  |  |  |  |  |  | Stress-related (commonly regulated) metabolites (Arabidopsis thaliana [3]): neither butylate nor chlorpropham treatment resulted in many changes; Herbicidal phenotype (Arabidopsis thaliana [2]): neither showed a strong herbicidal phenotype
CC(C)OC(=O)Nc1cccc(Cl)c1 [Chloropropham] |  |  |  |  |  |  |  |  |  |  |  |  | Stress-related (commonly regulated) metabolites (Arabidopsis thaliana [3]): neither butylate nor chlorpropham treatment resulted in many changes; Herbicidal phenotype (Arabidopsis thaliana [2]): neither showed a strong herbicidal phenotype
COc1nc(C)nc(NC(=O)NS(=O)(=O)c2ccccc2Cl)n1 [Chlorsulfuron] | 2 | 1 | 1 | 3 | 2 | 0 | 0 | 2 | 0 | 0 | −1 | anthocyanin accumulation in the older leaves accompanied by chlorosis of the newly emerging leaves | 
COc1c(Cl)ccc(Cl)c1C(=O)O [Dicamba] | 2 | 2 | 2 | 0 | 2 | 0 | 0 | 0 | 0 | 0 | −2 |  | 
c1cc[n+]2c(c1)-c1cccc[n+]1CC2 [Diquat] | 2 | 2 | 0 | 0 | 1 | 4 | 0 | 1 | 4 | 1 | −2 | rapid and widespread leaf necrosis | Symptom Class [1]: 7
CN(C)C(=O)Nc1ccc(Cl)c(Cl)c1 [Diuron] | 1 | 1 | 0 | 0 | 2 | 4 | 0 | 2 | 4 | 1 | −2 | rapid and widespread leaf necrosis | Symptom Class [1]: 7
CC(C)C1(C)N=C(c2ncccc2C(=O)O)NC1=O (stereo not drawn) [Imazapyr] | 2 | 0 | 0 | 2 | 0 | 0 | 0 | 2 | 0 | 0 | 0 | anthocyanin accumulation in the older leaves accompanied by chlorosis of the newly emerging leaves | Stress-related (commonly regulated) metabolites (Arabidopsis thaliana [3]): Only a few, if any, stress-related metabolites were observed
CCc1cnc(C2=NC(C)(C(C)C)C(=O)N2)c(C(=O)O)c1 (stereo not drawn) [Imazethapyr] | 2 | 1 | 1 | 3 | 0 | 0 | 0 | 2 | 0 | 0 | 0 | anthocyanin accumulation in the older leaves accompanied by chlorosis of the newly emerging leaves | 
CS(=O)(=O)c1cc(C(F)(F)F)ccc1C(=O)c1cnoc1C1CC1 [Isoxaflutole] |  |  |  |  |  |  |  |  |  |  |  |  | Alpha-tocopherol levels (Arabidopsis thaliana [3]; relative to control, early time points): not significantly changed relative to the control; Tyrosine and phenylalanine levels (Arabidopsis thaliana [3]; relative to control, early time points, 1 hr): up-regulated relative to the control; also recorded: began to accumulate relative to the control after one hour
CCc1cccc(C)c1N(C(=O)CCl)C(C)COC (stereo not drawn) [Metolachlor] | 2 | 2 | 1 | 0 | 0 | 3 | 0 | 0 | 3 | 1 | −1 |  | 
CSc1nnc(C(C)(C)C)c(=O)n1N [Metribuzin] | 1 | 1 | 0 | 0 | 2 | 4 | 0 | 2 | 4 | 1 | −2 | rapid and widespread leaf necrosis | 
O=[N+]([O-])O [Nitrate, nitrate] |  |  |  |  |  |  |  |  |  |  |  |  | Nitrate Regulation of Glutamate synthetase [4]: ↑; Nitrate Regulation of Glutamine synthetase (2) [4]: ↑; Nitrate Regulation of MADs Box (2) [4]: ↓; Nitrate Regulation of MYB transcription factor [4]: ↑; Nitrate Regulation of Malate Dehydrogenase [4]: ↑; Nitrate Regulation of Nitrate transporter [4]: ↑; Nitrate Regulation of Phosphate transporter [4]: ↑; Nitrate Regulation of Transaldolase [4]: ↑; Nitrate Regulation of Transketolase [4]: ↑
CNc1cnn(-c2cccc(C(F)(F)F)c2)c(=O)c1Cl [Norfluazon, norflurazon] |  |  |  |  |  |  |  |  |  |  |  |  | Stress-related (commonly regulated) metabolites (Arabidopsis thaliana [3]): Only a few, if any, stress-related metabolites were observed
C[n+]1ccc(-c2cc[n+](C)cc2)cc1 [Paraquat] | 2 | 2 | 0 | 0 | 1 | 4 | 0 | 1 | 4 | 1 | −1 | rapid and widespread leaf necrosis | Symptom Class [1]: 7
